Measured values as given in patent US10087229B2, “Peptide compound” (TAKEDA PHARMACEUTICAL COMPANY LIMITED, priority 2013, dated 2018).
Square brackets hold non-standard residues; d marks the D form. Peptide text beside a SMILES is read from it. NMeY = CN[C@@H](Cc1ccc(O)cc1)C(=O)O; αMeF = C[C@](N)(Cc1ccccc1)C(=O)O; Aib = CC(C)(N)C(=O)O

Assays:
male C57BL/6J mouse = experiment: 2-days continuous subcutaneous administration test (feeding suppressive activity); assay type: in vivo; details: 10 nmol/kg/day, subcutaneous Alzet pump, 2-days cumulative food consumption, control (solvent alone) = 0%
In short: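 Male C57BL/6J mice, 8-9 weeks, given test compound at 10 nmol/kg/day by subcutaneously implanted osmotic pump (50% DMSO vehicle), housed singly with free food access. Cumulative 2-day food consumption measured; suppression rate (%) calculated relative to vehicle-only controls.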

[1] = system: Diet-induced obesity (DIO) male C57BL/6J mice; experiment: 2-weeks continuous subcutaneous administration study in DIO mice (anti-obesity activity); assay type: in vivo, mouse; details: 1 nmol/kg/day, subcutaneous Alzet pump, 2 weeks after start of administration; rate of weight loss, control group regarded as 0%
Experimental: 2-Weeks Continuous Subcutaneous Administration Study in DIO Mice
The anti-obesity activity of a test compound was examined by the method described below.
Diet-induced obesity (DIO) mice were prepared by feeding male C57BL/6J mice with high-fat diet (D12451: Research Diets, Inc.). The test compound was dissolved in a solvent (50% DMSO) so that sustained release would occur at 1 nmol/kg/day, and the solution was filled in the Alzet Pump (DURECT Corporation, model: 1002). The pump thus filled with the solution to be administered was immersed in physiological saline for priming, and then used. The pump was embedded by the following method. Each male DIO-C57BL/6J mouse at 35-37 weeks of age (20-26° C., allowed to take food and water ad libitum; 12-hour bright-12-hour dark cycle) was anesthetized; the skin in the upper back thereof was incised, and the above-mentioned pump was embedded subcutaneously; the incision was sutured. After weighing, this mouse was returned to the rearing cage (reared alone), and given previously weighed food; the body weight was measured every 1 to 3 days after the start of administration. The anti-obesity activity of each test compound was evaluated on the basis of the rate of weight loss 2 weeks after the start of administration, with the rate of weight loss in a control group receiving administration of the solvent alone regarded as 0%.

human glucagon R = target: T1, human glucagon R (Homo sapiens, UniProt P47871); experiment: Reporter assay of human glucagon R agonist activity, rise in intracellular cAMP as index (hGlucagonR/CRE-LUC/CHO-K1 cells); assay type: cell-based; details: luciferase reporter; 10 nM glucagon = 100%, DMSO = 0%; 4 hours incubation; read-out: Agonist activity (EC50) hGCGR
T1 construct: expressed in transfected cells; host or cells: CHO-K1 (CRE-LUC/CHO-K1 reporter cells)
Excerpt: Evaluation of agonist activity against human GIPR, human GLP-1R and human glucagon R using rise in intracellular cAMP concentration as index
(2) Construction of Reporter Plasmid-Expressing Cell
The luciferase reporter gene having an upstream cAMP response sequence was introduced to CHO-K1 cells to construct CRE-LUC/CHO-K1 cells.
(7) Construction of Expression Plasmid for the Human Glucagon R Gene
The human glucagon R gene having a sequence identical to the sequence of GenBank Accession No. NM_000160 was cloned into pMSRα-neo vector to prepare hGlucagonR/pMSRα-neo.
(8) Introduction of the Human Glucagon R Gene into CRE-LUC/CHO-K1 Cell and Obtainment of Expressing Cell […]
The hGIPR/CRE-LUC/CHO-K1 cells were inoculated at a cell density of 25 μL/well (5×10^4 cells/well) to a 384-well white plate (Corning), and cultured overnight in Ham F12 medium containing 10% fetal bovine serum, 100 U/mL penicillin and 100 μg/mL streptomycin in a CO2 incubator of 37° C. […] After 30 minutes, the luciferase activity was measured using a plate reader Envision (PerkinElmer). […] The GIPR agonist activity was calculated with a rise in intracellular cAMP concentration as an index.
The glucagon R agonist activity was assayed in the same way as above using the hGlucagonR/CRE-LUC/CHO-K1 cells. […] The glucagon agonist activity was calculated with a rise in intracellular cAMP concentration as an index.

T1 sequence (P47871 26-477): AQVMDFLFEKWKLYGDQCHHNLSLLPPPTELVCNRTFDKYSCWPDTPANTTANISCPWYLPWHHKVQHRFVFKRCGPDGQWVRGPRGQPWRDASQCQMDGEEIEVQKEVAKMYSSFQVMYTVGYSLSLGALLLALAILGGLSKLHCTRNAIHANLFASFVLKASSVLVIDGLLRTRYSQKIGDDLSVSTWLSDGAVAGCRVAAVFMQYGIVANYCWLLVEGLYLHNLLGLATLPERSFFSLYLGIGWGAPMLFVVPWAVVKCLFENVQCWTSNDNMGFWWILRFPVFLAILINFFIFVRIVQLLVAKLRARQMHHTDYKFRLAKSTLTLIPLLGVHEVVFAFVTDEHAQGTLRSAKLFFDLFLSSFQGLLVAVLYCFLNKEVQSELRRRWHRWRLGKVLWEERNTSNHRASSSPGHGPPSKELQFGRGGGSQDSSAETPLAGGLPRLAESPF

SMILES | Food intake suppression (%) (male C57BL/6J mouse) | Change in body weight [1] | EC50 (human glucagon R)
CC(C)C[C@H](NC(=O)[C@H](CC(C)C)NC(=O)[C@H](Cc1c[nH]c2ccccc12)NC(=O)[C@H](CCCCN)NC(=O)[C@@H](NC(=O)[C@H](Cc1ccccc1)NC(=O)[C@H](CCC(=O)O)NC(=O)[C@H](CCC(N)=O)NC(=O)[C@H](CCC(N)=O)NC(=O)[C@H](C)NC(=O)[C@H](CCC(N)=O)NC(=O)[C@H](CCCCN)NC(=O)[C@H](CC(=O)O)NC(=O)[C@H](CC(C)C)NC(=O)[C@H](Cc1ccc(O)cc1)NC(=O)[C@H](CCCCN)NC(=O)C(C)(C)NC(=O)[C@H](Cc1ccc(O)cc1)NC(=O)[C@H](CC(=O)O)NC(=O)[C@H](CO)NC(=O)[C@@H](NC(=O)[C@](C)(Cc1ccccc1)NC(=O)[C@@H](NC(=O)CNC(=O)[C@H](CCC(=O)O)NC(=O)C(C)(C)NC(=O)[C@@H](N)Cc1ccc(O)cc1)[C@@H](C)O)[C@@H](C)O)C(C)C)C(=O)N[C@@H](CCCCN)C(=O)NCC(=O)NCC(=O)N1CCC[C@H]1C(=O)N[C@@H](CO)C(=O)N[C@@H](CO)C(=O)NCC(=O)N[C@@H](C)C(=O)N1CCC[C@H]1C(=O)N1CCC[C@H]1C(=O)N1CCC[C@H]1C(=O)N[C@@H](CO)C(=O)N[C@@H](CCCCN)C(N)=O [Example 25] (H-Y[Aib]EGT[αMeF]TSDY[Aib]KYLDKQAQQEFVKWLLKGGPSSGAPPPSK-NH2) | 53.12% | −11.2 | 
CC[C@H](C)[C@H](NC(=O)C(C)(C)NC(=O)[C@H](Cc1ccc(O)cc1)NC(=O)[C@H](CC(=O)O)NC(=O)[C@H](CO)NC(=O)[C@@H](NC(=O)[C@](C)(Cc1ccccc1)NC(=O)[C@@H](NC(=O)CNC(=O)[C@H](CCC(=O)O)NC(=O)C(C)(C)NC(=O)[C@H](Cc1ccc(O)cc1)NC)[C@@H](C)O)[C@@H](C)O)C(=O)NC(C)(C)C(=O)N[C@@H](CC(C)C)C(=O)N[C@@H](CC(=O)O)C(=O)N[C@@H](CCCCN)C(=O)N[C@@H](CCC(N)=O)C(=O)N[C@@H](C)C(=O)N[C@@H](CCC(N)=O)C(=O)N[C@@H](C)C(=O)N[C@@H](CCC(=O)O)C(=O)N[C@@H](Cc1ccccc1)C(=O)N[C@H](C(=O)N[C@@H](CCCCN)C(=O)N[C@@H](Cc1c[nH]c2ccccc12)C(=O)N[C@@H](CC(C)C)C(=O)N[C@@H](CC(C)C)C(=O)N[C@@H](CCCCN)C(=O)NCC(=O)NCC(=O)N1CCC[C@H]1C(=O)N[C@@H](CO)C(=O)N[C@@H](CO)C(=O)NCC(=O)N[C@@H](C)C(=O)N1CCC[C@H]1C(=O)N1CCC[C@H]1C(=O)N1CCC[C@H]1C(=O)N[C@@H](CO)C(=O)N[C@@H](CCCCN)C(N)=O)C(C)C [Example 23] (H-[NMeY][Aib]EGT[αMeF]TSDY[Aib]I[Aib]LDKQAQAEFVKWLLKGGPSSGAPPPSK-NH2) | 52.62% |  | > 1000 nM
CC(C)C[C@H](NC(=O)[C@H](CC(C)C)NC(=O)[C@H](Cc1c[nH]c2ccccc12)NC(=O)[C@H](CCCCN)NC(=O)[C@@H](NC(=O)[C@H](Cc1ccccc1)NC(=O)[C@H](CCC(=O)O)NC(=O)[C@H](C)NC(=O)[C@H](CCC(N)=O)NC(=O)[C@H](C)NC(=O)[C@H](CCC(N)=O)NC(=O)[C@H](CCCCN)NC(=O)[C@H](CC(=O)O)NC(=O)[C@H](CC(C)C)NC(=O)[C@H](Cc1ccc(O)cc1)NC(=O)[C@H](CCCCN)NC(=O)C(C)(C)NC(=O)[C@H](Cc1ccc(O)cc1)NC(=O)[C@H](CC(=O)O)NC(=O)[C@H](CO)NC(=O)[C@@H](NC(=O)[C@](C)(Cc1ccccc1)NC(=O)[C@@H](NC(=O)CNC(=O)[C@H](CCC(=O)O)NC(=O)C(C)(C)NC(=O)[C@@H](N)Cc1ccc(O)cc1)[C@@H](C)O)[C@@H](C)O)C(C)C)C(=O)N[C@@H](CCCCN)C(=O)NCC(=O)NCC(=O)N1CCC[C@H]1C(=O)N[C@@H](CO)C(=O)N[C@@H](CO)C(=O)NCC(=O)N[C@@H](C)C(=O)N1CCC[C@H]1C(=O)N1CCC[C@H]1C(=O)N1CCC[C@H]1C(=O)N[C@@H](CO)C(=O)N[C@@H](CCCCN)C(N)=O [Example 24] (H-Y[Aib]EGT[αMeF]TSDY[Aib]KYLDKQAQAEFVKWLLKGGPSSGAPPPSK-NH2) | 54.18% | −11.1 | 
CC(C)C[C@H](NC(=O)[C@H](CC(C)C)NC(=O)[C@H](Cc1c[nH]c2ccccc12)NC(=O)[C@H](CCCCN)NC(=O)[C@@H](NC(=O)[C@H](Cc1ccccc1)NC(=O)[C@H](CCC(=O)O)NC(=O)[C@H](CCC(N)=O)NC(=O)[C@H](CCC(N)=O)NC(=O)[C@H](C)NC(=O)[C@H](CCC(N)=O)NC(=O)[C@H](CCCCN)NC(=O)[C@H](CC(=O)O)NC(=O)[C@H](CC(C)C)NC(=O)[C@H](Cc1ccc(O)cc1)NC(=O)[C@H](CCCCN)NC(=O)C(C)(C)NC(=O)[C@H](Cc1ccc(O)cc1)NC(=O)[C@H](CC(=O)O)NC(=O)[C@H](CO)NC(=O)[C@@H](NC(=O)[C@](C)(Cc1ccccc1)NC(=O)[C@@H](NC(=O)CNC(=O)[C@H](CCC(=O)O)NC(=O)C(C)(C)NC(=O)[C@@H](N)Cc1ccc(O)cc1)[C@@H](C)O)[C@@H](C)O)C(C)C)C(=O)N[C@@H](CCCCN)C(=O)NCC(=O)NCC(=O)N1CCC[C@H]1C(=O)N[C@@H](CO)C(=O)N[C@@H](CO)C(=O)NCC(=O)N[C@@H](C)C(=O)N1CCC[C@H]1C(=O)N1CCC[C@H]1C(=O)N1CCC[C@H]1C(=O)N[C@@H](CO)C(N)=O [Example 26] (H-Y[Aib]EGT[αMeF]TSDY[Aib]KYLDKQAQQEFVKWLLKGGPSSGAPPPS-NH2) | 53.06% | −16.2 | 
CC[C@H](C)[C@H](NC(=O)C(C)(C)NC(=O)[C@H](Cc1ccc(O)cc1)NC(=O)[C@H](CC(=O)O)NC(=O)[C@H](CO)NC(=O)[C@@H](NC(=O)[C@](C)(Cc1ccccc1)NC(=O)[C@@H](NC(=O)CNC(=O)[C@H](CCC(=O)O)NC(=O)C(C)(C)NC(=O)[C@@H](N)Cc1ccc(O)cc1)[C@@H](C)O)[C@@H](C)O)C(=O)NC(C)(C)C(=O)N[C@@H](CC(C)C)C(=O)N[C@@H](CC(=O)O)C(=O)N[C@@H](CCCCN)C(=O)N[C@@H](CCC(N)=O)C(=O)N[C@@H](C)C(=O)N[C@@H](CCC(N)=O)C(=O)N[C@@H](C)C(=O)N[C@@H](CCC(=O)O)C(=O)N[C@@H](Cc1ccccc1)C(=O)N[C@H](C(=O)N[C@@H](CCCCN)C(=O)N[C@@H](Cc1c[nH]c2ccccc12)C(=O)N[C@@H](CC(C)C)C(=O)N[C@@H](CC(C)C)C(=O)N[C@@H](CCCCN)C(=O)NCC(=O)NCC(=O)N1CCC[C@H]1C(=O)N[C@@H](CO)C(=O)N[C@@H](CO)C(=O)NCC(=O)N[C@@H](C)C(=O)N1CCC[C@H]1C(=O)N1CCC[C@H]1C(=O)N1CCC[C@H]1C(=O)N[C@@H](CO)C(=O)N[C@@H](CCCCN)C(N)=O)C(C)C [Example 2] (H-Y[Aib]EGT[αMeF]TSDY[Aib]I[Aib]LDKQAQAEFVKWLLKGGPSSGAPPPSK-NH2) | 64.80% | −16.3 | 
